Data as given in article PMC12621043, “Un-LOK-ing a New Approach for Conformational Selective Targeting of STK10 (LOK)” (ACS Medicinal Chemistry Letters, 2025).
Values joined by “and” are separate entries in the source; they are usually repeats but may differ in a detail not shown here. Equal entries are not always repeated.

Legend:
[1] = molecular target: T1, MAPK9A (Homo sapiens, UniProt P45984); test: DSF Tm panel; type: binding; details: 10 μM compound
T1 construct: purchased in-house DSF kinase panel (SGC-style construct names; the trailing letter is the construct ID)
T1 sequence (P45984 7-364): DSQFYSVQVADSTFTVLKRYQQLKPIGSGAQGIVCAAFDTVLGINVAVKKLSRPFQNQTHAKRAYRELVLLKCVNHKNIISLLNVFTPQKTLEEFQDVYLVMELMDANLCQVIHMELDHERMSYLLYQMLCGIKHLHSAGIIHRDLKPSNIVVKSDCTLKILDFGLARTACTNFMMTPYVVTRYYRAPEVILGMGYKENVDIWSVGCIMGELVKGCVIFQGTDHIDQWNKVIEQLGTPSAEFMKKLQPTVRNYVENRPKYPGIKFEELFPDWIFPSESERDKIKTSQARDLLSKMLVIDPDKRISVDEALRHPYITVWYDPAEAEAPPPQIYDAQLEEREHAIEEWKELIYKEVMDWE

[2] = molecular target: T2, OSR1A (Homo sapiens, UniProt O95747); test: DSF Tm panel; type: binding; details: 10 μM compound
T2 construct: purchased in-house DSF kinase panel (SGC-style construct names; the trailing letter is the construct ID)
T2 sequence (O95747 17-291): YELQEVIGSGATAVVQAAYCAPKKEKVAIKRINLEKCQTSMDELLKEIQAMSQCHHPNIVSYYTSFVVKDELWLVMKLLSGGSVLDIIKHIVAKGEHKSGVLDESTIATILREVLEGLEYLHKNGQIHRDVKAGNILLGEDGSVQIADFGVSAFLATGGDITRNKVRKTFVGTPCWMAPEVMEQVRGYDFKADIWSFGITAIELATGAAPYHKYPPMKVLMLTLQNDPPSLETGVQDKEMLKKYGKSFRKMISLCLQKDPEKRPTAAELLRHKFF

[3] = molecular target: T3, MAP2K6A (Homo sapiens, UniProt P52564); test: DSF Tm panel; type: binding; details: 10 μM compound
T3 construct: purchased in-house DSF kinase panel (SGC-style construct names; the trailing letter is the construct ID)
T3 sequence (P52564 53-314): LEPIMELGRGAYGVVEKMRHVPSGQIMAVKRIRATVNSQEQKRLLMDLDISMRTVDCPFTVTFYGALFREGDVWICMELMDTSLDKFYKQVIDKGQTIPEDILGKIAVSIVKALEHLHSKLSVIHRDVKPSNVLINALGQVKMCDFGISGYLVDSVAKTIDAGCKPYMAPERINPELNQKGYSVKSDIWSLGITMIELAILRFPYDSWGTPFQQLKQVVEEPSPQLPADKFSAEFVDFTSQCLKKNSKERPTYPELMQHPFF

[4] = molecular target: T4, STK39A (Homo sapiens, UniProt Q9UEW8); test: DSF Tm panel; type: binding; details: 10 μM compound
T4 construct: purchased in-house DSF kinase panel (SGC-style construct names; the trailing letter is the construct ID)

[5] = molecular target: T5, DAPK1 (DAPK1A) (Homo sapiens, UniProt P53355); test: DSF Tm panel; type: binding; details: 10 μM compound
T5 construct: purchased in-house DSF kinase panel (SGC-style construct names; the trailing letter is the construct ID)
T5 sequence (P53355 1-285): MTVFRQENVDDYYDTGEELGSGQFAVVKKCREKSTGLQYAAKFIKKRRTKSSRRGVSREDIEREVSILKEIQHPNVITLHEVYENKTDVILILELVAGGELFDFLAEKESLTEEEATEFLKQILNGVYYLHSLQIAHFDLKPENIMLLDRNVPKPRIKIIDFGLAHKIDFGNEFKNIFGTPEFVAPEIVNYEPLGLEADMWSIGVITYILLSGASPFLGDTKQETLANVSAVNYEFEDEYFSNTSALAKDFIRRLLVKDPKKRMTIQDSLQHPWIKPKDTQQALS

[6] = molecular target: T6, GSG2A (Homo sapiens, UniProt Q8TF76); test: DSF Tm panel; type: binding; details: 10 μM compound
T6 construct: purchased in-house DSF kinase panel (SGC-style construct names; the trailing letter is the construct ID)
T6 sequence (Q8TF76 465-798): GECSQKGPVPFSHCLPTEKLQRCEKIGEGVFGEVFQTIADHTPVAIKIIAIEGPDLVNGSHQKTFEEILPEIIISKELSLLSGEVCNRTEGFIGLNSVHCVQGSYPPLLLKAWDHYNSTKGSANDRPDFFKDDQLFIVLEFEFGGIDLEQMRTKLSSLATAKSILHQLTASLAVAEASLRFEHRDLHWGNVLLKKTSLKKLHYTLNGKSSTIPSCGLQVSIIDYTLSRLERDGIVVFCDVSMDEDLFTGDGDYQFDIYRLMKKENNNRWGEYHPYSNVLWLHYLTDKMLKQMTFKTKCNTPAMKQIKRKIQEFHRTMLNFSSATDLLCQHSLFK

[7] = molecular target: T7, STK10 (Homo sapiens, UniProt O94804); test: PhosphoSens in vitro activity assay; type: biochemical; details: ATP 160 μM
T7 construct: purchased in-house DSF kinase panel (SGC-style construct names; the trailing letter is the construct ID)
T7 sequence (O94804 18-317 limits assumed): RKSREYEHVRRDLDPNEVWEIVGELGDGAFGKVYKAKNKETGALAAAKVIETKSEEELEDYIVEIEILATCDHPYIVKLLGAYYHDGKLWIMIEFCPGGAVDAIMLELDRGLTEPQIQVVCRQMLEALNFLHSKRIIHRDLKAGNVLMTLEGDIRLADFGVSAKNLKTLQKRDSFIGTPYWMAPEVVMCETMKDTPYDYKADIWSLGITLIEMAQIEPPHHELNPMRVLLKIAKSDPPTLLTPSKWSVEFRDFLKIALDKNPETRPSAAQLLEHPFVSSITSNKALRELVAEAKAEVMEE

[8] = molecular target: T8, FGFR2A (Homo sapiens, UniProt P21802); test: DSF Tm panel; type: binding; details: 10 μM compound
T8 construct: purchased in-house DSF kinase panel (SGC-style construct names; the trailing letter is the construct ID)
T8 sequence (P21802 458-770): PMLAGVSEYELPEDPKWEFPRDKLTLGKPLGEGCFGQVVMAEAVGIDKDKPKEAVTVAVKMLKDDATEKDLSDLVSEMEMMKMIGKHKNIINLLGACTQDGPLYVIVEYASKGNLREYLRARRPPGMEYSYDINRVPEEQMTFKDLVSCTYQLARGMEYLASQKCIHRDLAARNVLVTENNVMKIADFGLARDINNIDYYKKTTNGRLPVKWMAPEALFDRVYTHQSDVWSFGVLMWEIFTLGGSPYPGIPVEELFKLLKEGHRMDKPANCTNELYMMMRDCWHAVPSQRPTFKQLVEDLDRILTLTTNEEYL

[9] = molecular target: T9, MAPK1A (Homo sapiens, UniProt P28482); test: DSF Tm panel; type: binding; details: 10 μM compound
T9 construct: purchased in-house DSF kinase panel (SGC-style construct names; the trailing letter is the construct ID)
T9 sequence (P28482 whole entry): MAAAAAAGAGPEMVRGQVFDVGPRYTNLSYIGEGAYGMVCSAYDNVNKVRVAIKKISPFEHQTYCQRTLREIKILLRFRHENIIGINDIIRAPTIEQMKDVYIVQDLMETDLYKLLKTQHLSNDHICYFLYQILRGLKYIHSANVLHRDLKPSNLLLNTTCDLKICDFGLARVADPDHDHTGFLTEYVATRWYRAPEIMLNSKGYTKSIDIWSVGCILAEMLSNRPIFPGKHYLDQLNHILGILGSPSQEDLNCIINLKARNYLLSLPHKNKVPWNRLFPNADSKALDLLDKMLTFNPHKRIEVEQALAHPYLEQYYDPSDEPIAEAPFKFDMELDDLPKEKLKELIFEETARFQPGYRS

[10] = molecular target: T10, CASKA (Homo sapiens, UniProt O14936); test: DSF Tm panel; type: binding; details: 10 μM compound
T10 construct: purchased in-house DSF kinase panel (SGC-style construct names; the trailing letter is the construct ID)
T10 sequence (O14936 12-276): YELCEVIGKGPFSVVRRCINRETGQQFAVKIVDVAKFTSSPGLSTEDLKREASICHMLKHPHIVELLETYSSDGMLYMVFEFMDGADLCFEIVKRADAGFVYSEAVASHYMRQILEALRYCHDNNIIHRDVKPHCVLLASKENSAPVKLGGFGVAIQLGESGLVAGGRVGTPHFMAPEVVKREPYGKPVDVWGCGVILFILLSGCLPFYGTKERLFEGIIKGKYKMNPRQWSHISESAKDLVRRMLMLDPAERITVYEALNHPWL

[11] = molecular target: T11, PIM1 (PIM1A) (Homo sapiens, UniProt P11309); test: DSF Tm panel; type: binding; details: 10 μM compound
T11 construct: purchased in-house DSF kinase panel (SGC-style construct names; the trailing letter is the construct ID)
T11 sequence (P11309 whole entry): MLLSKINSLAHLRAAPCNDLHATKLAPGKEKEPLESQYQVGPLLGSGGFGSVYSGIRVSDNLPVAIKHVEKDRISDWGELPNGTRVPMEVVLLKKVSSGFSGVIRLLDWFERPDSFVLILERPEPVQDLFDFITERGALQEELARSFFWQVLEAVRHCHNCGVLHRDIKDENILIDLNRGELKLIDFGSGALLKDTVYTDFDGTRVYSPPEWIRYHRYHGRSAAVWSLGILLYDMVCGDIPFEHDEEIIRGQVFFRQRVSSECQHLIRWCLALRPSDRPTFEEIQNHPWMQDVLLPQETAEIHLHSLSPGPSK

[12] = molecular target: T12, GPRK5A (Homo sapiens, UniProt P34947); test: DSF Tm panel; type: binding; details: 10 μM compound
T12 construct: purchased in-house DSF kinase panel (SGC-style construct names; the trailing letter is the construct ID)
T12 sequence (P34947 186-514): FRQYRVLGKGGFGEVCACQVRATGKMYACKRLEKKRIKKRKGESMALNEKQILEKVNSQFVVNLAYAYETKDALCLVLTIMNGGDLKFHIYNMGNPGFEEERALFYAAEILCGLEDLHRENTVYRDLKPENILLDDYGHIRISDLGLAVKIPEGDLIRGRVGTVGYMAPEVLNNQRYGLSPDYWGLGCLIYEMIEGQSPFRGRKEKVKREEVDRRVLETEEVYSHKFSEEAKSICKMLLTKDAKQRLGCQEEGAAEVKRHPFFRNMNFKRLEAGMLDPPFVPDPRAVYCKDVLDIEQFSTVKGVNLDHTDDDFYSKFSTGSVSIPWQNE

[13] = molecular target: T13, MARK4A (Homo sapiens, UniProt Q96L34); test: DSF Tm panel; type: binding; details: 10 μM compound
T13 construct: purchased in-house DSF kinase panel (SGC-style construct names; the trailing letter is the construct ID)
T13 sequence (Q96L34 59-310): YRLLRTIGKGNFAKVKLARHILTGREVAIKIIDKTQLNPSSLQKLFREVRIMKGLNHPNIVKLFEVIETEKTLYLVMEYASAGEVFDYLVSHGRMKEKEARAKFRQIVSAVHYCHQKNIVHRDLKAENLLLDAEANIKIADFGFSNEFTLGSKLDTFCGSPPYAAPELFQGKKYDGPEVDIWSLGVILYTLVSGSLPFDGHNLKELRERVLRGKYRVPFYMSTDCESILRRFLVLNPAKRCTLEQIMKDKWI

[14] = molecular target: T14, CDK2A (Homo sapiens, UniProt P24941); test: DSF Tm panel; type: binding; details: 10 μM compound
T14 construct: purchased in-house DSF kinase panel (SGC-style construct names; the trailing letter is the construct ID)

[15] = molecular target: SLK (Homo sapiens, UniProt Q9H2G2); test: DSF Tm panel; type: binding; set-up: purchased in-house DSF kinase panel (SGC-style construct names; the trailing letter is the construct ID); details: 10 μM compound
[16] = molecular target: T15, DCAMKL1A (Homo sapiens, UniProt O15075); test: DSF Tm panel; type: binding; details: 10 μM compound
T15 construct: purchased in-house DSF kinase panel (SGC-style construct names; the trailing letter is the construct ID)
T15 sequence (O15075 372-649): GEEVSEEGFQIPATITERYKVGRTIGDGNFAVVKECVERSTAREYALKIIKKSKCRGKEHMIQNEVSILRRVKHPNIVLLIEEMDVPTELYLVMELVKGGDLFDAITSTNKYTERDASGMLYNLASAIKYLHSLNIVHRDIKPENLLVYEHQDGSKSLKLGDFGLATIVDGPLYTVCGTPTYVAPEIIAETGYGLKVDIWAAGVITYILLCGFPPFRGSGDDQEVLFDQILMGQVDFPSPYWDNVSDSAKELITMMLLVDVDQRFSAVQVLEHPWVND

[17] = molecular target: T16, BRAFA (Homo sapiens, UniProt P15056); test: DSF Tm panel; type: binding; details: 10 μM compound
T16 construct: purchased in-house DSF kinase panel (SGC-style construct names; the trailing letter is the construct ID)
T16 sequence (P15056 448-723): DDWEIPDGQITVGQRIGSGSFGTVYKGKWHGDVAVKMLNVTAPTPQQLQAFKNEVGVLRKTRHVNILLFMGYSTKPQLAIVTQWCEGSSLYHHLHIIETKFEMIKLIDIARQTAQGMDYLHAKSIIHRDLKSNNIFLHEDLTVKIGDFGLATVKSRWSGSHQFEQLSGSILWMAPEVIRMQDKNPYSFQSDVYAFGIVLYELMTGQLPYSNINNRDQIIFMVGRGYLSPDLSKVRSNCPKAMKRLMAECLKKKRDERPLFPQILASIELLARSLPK

[18] = molecular target: T17, MAPK14A (Homo sapiens, UniProt Q16539); test: DSF Tm panel; type: binding; details: 10 μM compound
T17 construct: purchased in-house DSF kinase panel (SGC-style construct names; the trailing letter is the construct ID)
T17 sequence (Q16539 whole entry): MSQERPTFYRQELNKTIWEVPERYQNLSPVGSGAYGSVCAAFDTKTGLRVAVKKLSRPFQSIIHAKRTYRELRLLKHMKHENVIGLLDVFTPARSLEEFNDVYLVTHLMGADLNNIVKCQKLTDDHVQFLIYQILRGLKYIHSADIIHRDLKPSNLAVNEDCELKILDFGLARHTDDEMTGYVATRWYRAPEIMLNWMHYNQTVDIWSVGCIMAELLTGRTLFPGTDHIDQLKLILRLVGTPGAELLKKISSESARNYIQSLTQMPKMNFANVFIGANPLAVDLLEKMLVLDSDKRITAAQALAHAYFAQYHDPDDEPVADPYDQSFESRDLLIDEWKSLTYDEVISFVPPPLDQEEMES

[19] = molecular target: T18, FESA (Homo sapiens, UniProt P07332); test: DSF Tm panel; type: binding; details: 10 μM compound
T18 construct: purchased in-house DSF kinase panel (SGC-style construct names; the trailing letter is the construct ID)
T18 sequence (P07332 whole entry): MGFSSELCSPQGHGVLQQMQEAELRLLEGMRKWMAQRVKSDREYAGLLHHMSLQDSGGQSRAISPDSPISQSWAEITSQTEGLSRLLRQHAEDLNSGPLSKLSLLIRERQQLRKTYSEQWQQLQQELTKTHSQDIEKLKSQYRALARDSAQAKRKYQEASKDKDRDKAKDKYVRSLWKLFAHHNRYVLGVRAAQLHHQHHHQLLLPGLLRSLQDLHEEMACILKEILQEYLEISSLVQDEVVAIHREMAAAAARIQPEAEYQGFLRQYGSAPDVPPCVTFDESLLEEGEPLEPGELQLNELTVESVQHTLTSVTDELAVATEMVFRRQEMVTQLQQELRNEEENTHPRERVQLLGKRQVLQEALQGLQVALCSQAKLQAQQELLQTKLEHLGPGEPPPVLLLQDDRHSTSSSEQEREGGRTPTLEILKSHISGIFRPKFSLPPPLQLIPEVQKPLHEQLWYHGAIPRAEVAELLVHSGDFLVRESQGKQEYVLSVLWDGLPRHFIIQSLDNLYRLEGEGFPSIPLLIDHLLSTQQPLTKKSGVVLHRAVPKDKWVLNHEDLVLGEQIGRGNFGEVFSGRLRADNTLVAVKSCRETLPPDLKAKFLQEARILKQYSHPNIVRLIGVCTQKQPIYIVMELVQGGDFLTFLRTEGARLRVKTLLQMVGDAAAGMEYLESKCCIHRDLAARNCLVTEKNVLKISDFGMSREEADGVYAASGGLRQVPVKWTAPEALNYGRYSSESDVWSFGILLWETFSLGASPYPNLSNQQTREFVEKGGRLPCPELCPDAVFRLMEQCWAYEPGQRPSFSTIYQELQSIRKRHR

[20] = molecular target: T19, MAPK13A (Homo sapiens, UniProt O15264); test: DSF Tm panel; type: binding; details: 10 μM compound
T19 construct: purchased in-house DSF kinase panel (SGC-style construct names; the trailing letter is the construct ID)
T19 sequence (O15264 1-365): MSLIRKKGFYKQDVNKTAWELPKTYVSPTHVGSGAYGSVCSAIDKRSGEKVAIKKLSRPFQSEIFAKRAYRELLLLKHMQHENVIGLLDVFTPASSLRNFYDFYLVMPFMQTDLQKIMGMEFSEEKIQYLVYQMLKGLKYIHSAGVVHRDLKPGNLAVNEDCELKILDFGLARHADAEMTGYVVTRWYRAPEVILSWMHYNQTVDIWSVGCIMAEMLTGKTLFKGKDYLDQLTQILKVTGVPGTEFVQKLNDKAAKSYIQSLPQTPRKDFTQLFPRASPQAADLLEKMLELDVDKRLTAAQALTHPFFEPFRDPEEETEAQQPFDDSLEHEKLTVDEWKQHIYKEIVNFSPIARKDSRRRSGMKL

Row | SMILES | ΔTm at 10 µM [1] | ΔTm at 10 µM [2] | ΔTm at 10 µM [3] | ΔTm at 10 µM [4] | ΔTm at 10 µM [5] | ΔTm at 10 µM [6] | IC50 [7] | ΔTm at 10 µM [8] | ΔTm at 10 µM [9] | ΔTm at 10 µM [10] | ΔTm at 10 µM [11] | ΔTm at 10 µM [12] | ΔTm at 10 µM [13] | ΔTm at 10 µM [14] | ΔTm at 10 µM [15] | ΔTm at 10 µM [16] | ΔTm at 10 µM [17] | ΔTm at 10 µM [18] | ΔTm at 10 µM [19] | ΔTm at 10 µM [20]
1 | O=C(NCc1ccc(Cl)cc1Cl)Nc1ccc2cc1OCCOCCNc1ccn3ncc-2c3n1 [compound 20] | 1.5 °C | 1.8 °C | 1.1 °C | 1.9 °C | 0.2 °C | 0 °C | 1430 ± 280 nM | 0.9 °C | 0.8 °C | 1.7 °C | 3 °C | 1.3 °C | 2 °C | 2.5 °C | 5.8 °C | 0.6 °C | 0.4 °C | 0.8 °C | 0.5 °C | 0.4 °C
2 | O=C(NCc1ccc(Cl)cc1F)Nc1ccc2cc1OCCOCCNc1ccn3ncc-2c3n1 [compound 21] | 0.3 °C | 1.6 °C | 1.3 °C | 2.4 °C | 0.3 °C | 0.1 °C | 2620 ± 610 nM | 2.3 °C | 0.3 °C | 2.7 °C | 2.8 °C | 1.4 °C | 2.6 °C | 5.9 °C | 5.7 °C | 0.4 °C | 0.5 °C | 0.5 °C | 0.6 °C | 0.6 °C
3 | Cc1cc(Cl)ccc1CNC(=O)Nc1ccc2cc1OCCOCCNc1ccn3ncc-2c3n1 [compound 23] | 2 °C | 0.8 °C | 0.4 °C | 2.5 °C | 0.1 °C | -0.1 °C | 850 nM and < 1000 nM | 1.9 °C | 0.8 °C | 2.5 °C | 2.3 °C | 0.8 °C | 1.5 °C | 3.1 °C | 3.5 °C | 0.7 °C | 0.5 °C | 0.3 °C | 0.5 °C | 0.3 °C
4 | Cc1cc(Br)ccc1CNC(=O)Nc1ccc2cc1OCCOCCNc1ccn3ncc-2c3n1 [compound 24] | -1.2 °C | 1.6 °C | 0.6 °C | 1 °C | -0.3 °C | 0 °C | 4620 ± 880 nM | 2.2 °C | 0.7 °C | 0.6 °C | 0.5 °C | 0 °C | 1.9 °C | 1.6 °C | 2.9 °C | 1.6 °C | -0.3 °C | 2 °C | 0.5 °C | -0.4 °C
5 | Cc1ccc(F)cc1CNC(=O)Nc1ccc2cc1OCCOCCNc1ccn3ncc-2c3n1 [compound 26] | -1.6 °C | 1.2 °C | 0.7 °C | 0.9 °C | 0.2 °C | 0.6 °C | 3530 ± 570 nM | 3.5 °C | 0.8 °C | 1.2 °C | 1 °C | 0.1 °C | 1.9 °C | 2.3 °C | 3.2 °C | 1.6 °C | -0.6 °C | 2.7 °C | 0.3 °C | -0.2 °C
6 | O=C(NCc1ccccc1C(F)(F)F)Nc1ccc2cc1OCCOCCNc1ccn3ncc-2c3n1 [compound 27] | -0.1 °C | 2.1 °C | 1.2 °C | 1.5 °C | 0.1 °C | 0.7 °C | 2360 ± 600 nM | 2.7 °C | 0.9 °C | 1.6 °C | 1.1 °C | 0.2 °C | 2.7 °C | 1.9 °C | 4.2 °C | 2.3 °C | -0.4 °C | 2.6 °C | 0.7 °C | -0.5 °C
